“Also recorded” adds a separate entry of the source.

These results are taken from US9284368B2, “Substituted pyrazines as cadherin-11 inhibitors” (Georgetown University, priority 2009, dated 2016).

In data set [1] the test system is nude mice. The data set is described as follows: Pilot toxicity study in nude mice. It counts as in vivo.
Data set [2] in a line: Cytotoxicity in vitro. The class given is cell-based. The note with it: up to a 100 μM dosage in vitro.
The test system of data set [3] is MDA-MB-231 breast cancer cells. The data set is described as follows: Soft agar colony growth assay. It counts as cell-based. The note with it: MDA-MB-231 cells, 100 nM. As for the experimental part:
To further characterize proliferative ability of cancer cells lacking cadherin-11, anchorage independent growth was studied in the stable cell lines. 6-well tissue culture dishes were coated with 1.2 mL 0.6% Bacto-agar (Difco; Franklin Lakes, N.J.) in DMEM supplemented with 5% fetal bovine serum. Once set, the cells were plated in triplicate in 0.3% agar (15,000/1 mL in each well) and layered gently on top of the coated agar. The plates were incubated for 10 days to 2 weeks prior to reading using a colony counter (Omnicon; Manassas, Va.) and visualized using a SMZ-1500 stereoscope (Nikon; Tokyo, JP).
For luminescence, the cells were plated in triplicate in 24-well white-walled tissue culture dishes (Wallac; Waltham, Mass.) as described above. On the final day, cells were resuspended in an equal volume of Cell-Titer-Glo Luminescence Reagent (Promega; Madison, Wis.), which measures ATP, and incubated for 20 min at room temperature. The assay was measured using luminescence.
Cells (5,000) were plated in 0.3% agar layered on top of 0.6% agar in 35-mm^2 plates. After 2 weeks, the colonies were counted in an Omnicon 3600 automated colony counter (BioLogics, Inc.; Manassas, Va.) and visualized using a SMZ-1500 stereoscope (Nikon; Tokyo, JP). Confirmation assays were completed in 24-well dishes and analyzed using Cell-Titer-Glo Reagent (see proliferation assays).

Data set [4] relates to MDA-MB-435 melanoma cells. The data set is described as follows: Matrigel outgrowth (invasion) assay. The note with it: MDA-MB-435 melanoma cells (expressing N-cadherin), 1 μM and 10 μM. The class given is cell-based. As for the experimental part: (§1) Upon finding significant differences in growth and migration in cancer cells with reduced cadherin-11 expression, invasive capability of the stable cell lines was explored in a 3-dimensional matrix. The cells were plated in duplicate in a 12-well glass-bottom dish (MatTek; Ashland, Mass.) coated with 150 μL of Matrigel (BD Biosciences; San Jose, Calif.). The cells (5,000 cells/100 μl medium) were gently plated on top of the Matrigel layer directly and incubated 30 min at 37° C. Growth medium (1 mL) was gently added to each well, and growth was visualized using a 5× objective on an AH2 Vanox inverted microscope (Olympus; Tokyo, JP) equipped with a CCD camera.
(§2) Cells (5,000 cells/100 μl medium) were plated atop 150 μL layer of Matrigel (BD Biosciences; San Jose, Calif.) in duplicate in 12-well glass-bottom dishes (MatTek; Ashland, Mass.) and incubated for 30 minutes at 37° C. Growth medium (1 mL) was gently added to each well. Growth was visualized using a 5× objective on AH2 Vanox inverted microscope (Olympus; Tokyo, JP).

Data set [5] concerns MDA-MB-231 breast cancer cells. The data set is described as follows: Matrigel outgrowth (invasion) assay. It counts as cell-based. The conditions noted are these: MDA-MB-231 cells, 100 nM. As for the experimental part:
as §1, §2

Data set [6] relates to MCF7 breast cancer cells. Nature of the data set: Matrigel outgrowth (invasion) assay. The class given is cell-based. The conditions noted are these: MCF7 breast cancer cells (expressing E and P-cadherin), 1 μM and 10 μM. As for the experimental part: as §1, §2
Data set [7] has as its target T1, cadherin-11 (Homo sapiens, UniProt P55287).
T1 construct: Endogenous cadherin-11 expression in MDA-MB-231 breast and PC-3 prostate cancer cells was knocked down; endogenous in cells; host or cells: MDA-MB-231 breast cancer cells (PC-3 partly)
T1 sequence (P55287 54-796): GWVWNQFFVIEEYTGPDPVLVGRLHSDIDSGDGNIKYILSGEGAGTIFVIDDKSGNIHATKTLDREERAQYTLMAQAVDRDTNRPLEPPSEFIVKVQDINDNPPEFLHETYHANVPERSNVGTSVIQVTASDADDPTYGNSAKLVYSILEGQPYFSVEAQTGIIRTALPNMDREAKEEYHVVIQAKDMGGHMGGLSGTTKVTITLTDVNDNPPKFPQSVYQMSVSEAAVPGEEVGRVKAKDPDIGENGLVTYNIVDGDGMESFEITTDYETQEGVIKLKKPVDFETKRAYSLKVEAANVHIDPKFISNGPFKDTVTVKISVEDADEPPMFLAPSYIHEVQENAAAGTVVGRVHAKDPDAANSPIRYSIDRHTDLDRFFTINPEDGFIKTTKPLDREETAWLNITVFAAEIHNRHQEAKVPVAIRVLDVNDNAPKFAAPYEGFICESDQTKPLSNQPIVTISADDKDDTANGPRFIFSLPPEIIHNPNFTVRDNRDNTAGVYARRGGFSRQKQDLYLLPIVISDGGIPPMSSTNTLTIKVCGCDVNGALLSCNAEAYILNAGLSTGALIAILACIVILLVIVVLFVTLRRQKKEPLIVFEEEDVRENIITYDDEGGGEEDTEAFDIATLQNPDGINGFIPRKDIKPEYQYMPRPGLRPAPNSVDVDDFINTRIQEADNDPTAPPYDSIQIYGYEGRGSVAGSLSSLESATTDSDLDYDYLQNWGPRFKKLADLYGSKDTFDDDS
Nature of the data set: Initial functional screening of in silico hits for block of cadherin-11 function. The class given is cell-based. The note with it: in vitro screening of commercially purchased in silico hits. As for the experimental part: These two pharmacophores were further refined and screened again to maximize solubility and then retested using various in vitro assays. […] Finally, it was also observed that the compound was not cytotoxic up to a 100 μM dosage in vitro, as well as a pilot study in nude mice.
Cadherin-11 association with certain poor prognosis cancers, proliferation of basal-type breast cancer cells, and tumorigenesis in mice make it a viable therapeutic target for these malignancies. […] A computer-based method of structural modeling was used to predict conformations capable of binding these specific hydrophobic pockets. The ectodomain1 (EC1) dimer adhesive interface is formed by exchange of N-terminal β strands between two cadherin-11 molecules. The dimer interface has a large hydrophobic region (unique to type II cadherins) with two conserved tryptophan residues. […] This structure was used to base molecular simulations and produce pharmacophores designed to block one or both of the two adjacent regions (P1 and P2) predicted necessary for cadherin-11 function in cell-cell adhesion. Three in-silico strategies were implemented: 1) generation of flexible receptor conformations, 2) receptor-based dynamic pharmacophore screening and 3) small molecule docking simulations. The 29 most promising candidates identified by in silico screen were subjected to free energy simulations at 100 picosecond intervals, taking into consideration the induced fit effect, which accounts for conformation flexibility both before and after binding/docking simulations. […] These 29 compounds were purchased commercially and tested. Many of the compounds initially screened inhibited cadherin-11 function at 10 μM range, attesting to the in silico screening efficiency. […] The potency of Compound 1 likely stems from its shape and moderate structural flexibility, enabling it to accommodate to and bind tightly within the tryptophan binding pocket. Though this pocket is largely hydrophobic, a network of hydrogen bonds between Compound 1 and R23, H25, P88, S90 confers specificity and rigid binding. […]

Data set [8] in a line: In vivo acute toxicity (OECD Up-and-Down Procedure). The note with it: mouse, female Balb/c mice, IP injection, observed for 14 days. As for the experimental part: Female Balb/c mice, 8-12 weeks old, were obtained from the National Cancer Institute (Bethesda, Md.). A stock solution of 200 mg/ml of Compound 1 was prepared with a 1:1 ratio of DMSO and PEG. The working solution was diluted with PEG. Compound 1 (Sd-133) was administered at a constant volume (0.01 ml/1 g body weight) over the range of doses to be tested by varying the concentration of the dosing preparation according to the OECD Acute Toxicity-Up-and Down Procedure. […] Observations included toxicity onset time, symptoms, duration and the time elapsed for recovery or death. Based on the study, the LD50 of Compound 1 was estimated at 2000 mg/kg.

Data set [9] concerns MDA-MB-231 breast cancer cells. Nature of the data set: Proliferation assay (crystal violet / luminescence). The class given is cell-based. The note with it: MDA-MB-231 cells, 100 nM. The procedure: (§3) For crystal violet assays, cells were plated in triplicate in 96-well tissue culture dishes at 4 separate densities. Cells were grown in DMEM supplemented with 5% fetal bovine serum for a period of 5 days. Dishes representing growth were stained with crystal violet on Days 1, 3 and 5 after plating, by removing growth medium, staining with 50 μL of crystal violet stain for 10 min, then gently washing in dH2O and allowing to dry overnight. Stained cells were solubilized in 100 μL 50/50 (v/v) 0.1M sodium citrate and ethanol for 15 min, and absorbance was read at 630λ.
(§4) For luminescence, the cells were plated in triplicate in 24-well white-walled tissue culture dishes (Wallac; Waltham, Mass.) and grown in DMEM supplemented with 5% fetal bovine serum for 5 days. On the fifth day, the cells were resuspended in an equal volume of Cell-Titer-Glo Luminescence Reagent (Promega; Madison, Wis.), which measures ATP, and incubated for 20 min at room temperature. The assay was measured using luminescence.
(§5) Cells were plated in triplicate at four separate densities and grown in DMEM with 5% FBS for five days. Cells were stained with crystal violet on days 1, 3, and 5 after plating, as described in Example 5. Absorbance was read at 630λ using a BioRad Ultramark Microplate Imaging System with Microplate Manager 5.1 software. […]

Data set [10] has as its system MDA-MB-435 melanoma cells. The data set is described as follows: Proliferation assay. It counts as cell-based. The note with it: MDA-MB-435 melanoma cells (expressing N-cadherin), 1 μM and 10 μM. As for the experimental part:
as §3, §4, §5

The subject of data set [11] is MCF7 breast cancer cells. The data set is described as follows: Proliferation assay. It counts as cell-based. The note with it: MCF7 breast cancer cells (expressing E and P-cadherin), 1 μM and 10 μM. As for the experimental part:
as §3, §4, §5

Data set [12] relates to PC-3 prostate cancer cells. The data set is described as follows: Growth phenotypes in PC-3 cells. It counts as cell-based.
Data set [13] has as its system L-cells with stably-transfected cadherin-11. Nature of the data set: Cell aggregation assay, cadherin-11 transfected L-cells. It counts as cell-based. The conditions noted are these: cadherin-11 L-cells, shaken one hour at 100 rpm. The procedure: (§6) Cell aggregation assays were performed on L-cells with stably-transfected empty vector or cadherin-11. The cells were seeded and grown overnight, trypsinized with additional EDTA, resuspended in DMEM with 20% FBS, and counted. The cells were spun down and resuspended in DMEM containing no treatment, 0.5 mM EDTA, 0.25 mM EDTA, 0.1 mM EDTA, or cadherin-11 inhibitors including 1 TM of Compound 1 (Sd-133), 1 TM of Compound 2 (Sd-133A), 1 TM of Compound 3 (Sd-133B), 1 TM of Compound 11 (Sd-12), 1 TM of Compound 12 (Sd-48), 1 TM of Compound 17 (Sd-20), 1 TM of Compound 18 (Sd-51), 1 TM of Compound 19 (Sd-22), or 1 TM of Compound 20 (Sd-23). The cells were allowed to recover for one hour and were then put into uncoated 12 well plates and shaken for one hour at 100 rpm at 2.25×10^5 cells/mL. The cells were then counted using Microsizer Coulter Counter (Beckman Coulter, Inc; Brea, Calif.). Counts over 20 uM in length were considered aggregates, while counts below 20 uM were considered as single cells. The counts were confirmed by manual counting.

Data set [14] deals with L-cells with stably-transfected empty vector. The data set is described as follows: Cell aggregation assay, empty vector L-cells. The note with it: shaken one hour at 100 rpm. The class given is cell-based. The procedure:
as §6

For the molecule `Oc1ccc(-c2cccnc2-c2ccccc2)cc1` [Compound 1], the cytotoxicity entry in data set [1] and in data set [2] was “not cytotoxic” throughout. In addition, the colony growth entry in data set [3] is listed as “significantly blocked; also recorded: significantly inhibited”. Moreover, the invasion result is “fails to block; also recorded: failed to alter” in data set [4], “significantly blocked; also recorded: significantly inhibited” in data set [5] and “fails to block; also recorded: failed to alter” in data set [6]. Besides, the “concentration range at which cadherin-11 is functionally blocked (effective range)” value in data set [7] is “nanomolar ranges”. Moreover, the LD50 at 14 days in data set [8] was 2000 mg/kg. Moreover, in data set [9], the cell proliferation entry is listed as “significantly blocked; also recorded: significantly inhibited”. The proliferation entry in [10] and in data set [11] was “fails to block; also recorded: failed to alter” throughout. Moreover, the growth phenotypes entry in [12] is reported as “partially inhibited”.
For the molecule `Oc1ccc(-c2nc3ccccc3nc2-c2cccc(Cl)c2)cc1` [Compound 2], the aggregate formation entry in [13] is given as “decrease”; in data set [14], “remained stable”.
The like results for `Oc1ccc(-c2nc3ccccc3nc2-c2ccccc2)cc1` [Compound 3] were, in that order, “decrease” and “remained stable”.
Take `O=C1c2ccccc2C(=O)c2c1oc1ccc3ccccc3c21` [Compound 9]: the “concentration range at which cadherin-11 is functionally blocked (effective range)” value in [7] is listed as “nanomolar ranges”.
Still for that read-out and setting: with `Oc1ccc2c(c1)c1ccccc1c1ncccc21` [Compound 10] the entry was “nanomolar ranges”.
